Test results from PubChem BioAssay (NCI).
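Compound exposure: 48 hours, 5 concentrations, 96-well plates. TGI denotes the concentration required for complete inhibition of growth.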

Legend:
Experiment in all cases: inhibition of tumour cell growth, NCI panel, 48 h
A549 NSCLC = tested on: A549 NSCLC
ACHN renal = tested on: ACHN renal
DU-145 prostate = tested on: DU-145 prostate
HCT-15 colon = tested on: HCT-15 colon
HT29 colon = tested on: HT29 colon
IGROV1 ovarian = tested on: IGROV1 ovarian
K-562 leukemia = tested on: K-562 leukemia
KM12 colon = tested on: KM12 colon
LOX IMVI melanoma = tested on: LOX IMVI melanoma
MDA-MB-231 breast = tested on: MDA-MB-231 breast
MOLT-4 leukemia = tested on: MOLT-4 leukemia
NCI-H522 lung = tested on: NCI-H522 lung
RPMI-8226 leukemia = tested on: RPMI-8226 leukemia
SK-OV-3 ovarian = tested on: SK-OV-3 ovarian
TK-10 renal = tested on: TK-10 renal
U251 CNS = tested on: U251 CNS
UACC-257 melanoma = tested on: UACC-257 melanoma
MALME-3M melanoma = tested on: MALME-3M melanoma
HOP-92 NSCLC = tested on: HOP-92 NSCLC

Row | SMILES | TGI (A549 NSCLC) | TGI (ACHN renal) | TGI (DU-145 prostate) | TGI (HCT-15 colon) | TGI (HT29 colon) | TGI (IGROV1 ovarian) | TGI (K-562 leukemia) | TGI (KM12 colon) | TGI (LOX IMVI melanoma) | TGI (MDA-MB-231 breast) | TGI (MOLT-4 leukemia) | TGI (NCI-H522 lung) | TGI (RPMI-8226 leukemia) | TGI (SK-OV-3 ovarian) | TGI (TK-10 renal) | TGI (U251 CNS) | TGI (UACC-257 melanoma) | TGI (MALME-3M melanoma) | TGI (HOP-92 NSCLC)
1 | O=c1c2ncn(C3CCCO3)c2n(-c2ccccc2)c(=S)n1-c1ccccc1 (stereo not given) | > 100 µM | > 100 µM | > 100 µM | > 100 µM | > 100 µM | > 100 µM | > 100 µM | > 100 µM | > 100 µM | > 100 µM | > 100 µM | > 100 µM | > 100 µM | > 100 µM | > 100 µM | > 100 µM | > 100 µM |  | 
2 | CC(=O)O[C@H]1CC[C@@]2(C)C(=CC[C@H]3[C@@H]4C/C(=C\c5ccc(N(C)C)cc5)[C@H](OC(C)=O)[C@@]4(C)CC[C@@H]32)C1 | 31.7 µM | 24.4 µM | > 100 µM | 31.9 µM | 34.2 µM | 28.4 µM | > 100 µM | > 100 µM | 20.8 µM | 29.4 µM | > 100 µM |  | > 100 µM | > 100 µM | 35.6 µM | 19.4 µM | 21.4 µM | 29.7 µM | 
3 | c1ccc2c(c1)SCCC2NC1=NCCO1 (stereo not given) | > 100 µM | > 100 µM | > 100 µM | > 100 µM | > 100 µM | > 100 µM | > 100 µM | > 100 µM | > 100 µM | > 100 µM | > 100 µM | > 100 µM | > 100 µM | > 100 µM | > 100 µM | > 100 µM |  | > 100 µM | 
4 | CC(=O)NC1=N/C(=C\c2ccc(Cl)cc2)C(=O)N1/C=C1\C(=O)Oc2ccccc2C1=O | > 100 µM | > 100 µM | > 100 µM | > 100 µM | > 100 µM | > 100 µM | > 100 µM | > 100 µM | > 100 µM | > 100 µM | > 100 µM | > 100 µM | > 100 µM | > 100 µM |  | > 100 µM | > 100 µM | > 100 µM | 
5 | O=C(CC(C(=O)c1ccsc1)c1ccccc1)c1ccccc1 (stereo not given) | 80 µM | > 100 µM | > 100 µM | > 100 µM | > 100 µM | > 100 µM | > 100 µM | > 100 µM | > 100 µM |  | > 100 µM | > 100 µM | > 100 µM | > 100 µM | > 100 µM | > 100 µM | > 100 µM |  | > 100 µM
6 | COc1ccc(OC)c(/C=C(/C#N)c2ccccc2)c1 | > 100 µM | > 100 µM |  | > 100 µM | > 100 µM | > 100 µM | 13.8 µM | > 100 µM | > 100 µM |  | 57.7 µM | 45.5 µM | 60.6 µM | > 100 µM | > 100 µM | > 100 µM |  | > 100 µM | 70.2 µM
7 | CC(=O)N(C)CCc1c[nH]c2ccccc12 | > 100 µM | > 100 µM | > 100 µM | > 100 µM | > 100 µM | > 100 µM | > 100 µM | > 100 µM | > 100 µM | > 100 µM | > 100 µM | > 100 µM | > 100 µM | > 100 µM | > 100 µM | > 100 µM | > 100 µM | > 100 µM | 
8 | CCOc1nnnc2nc[nH]c12 | > 100 µM |  | > 100 µM | > 100 µM | > 100 µM | > 100 µM |  | > 100 µM | > 100 µM | > 100 µM | > 100 µM | > 100 µM | > 100 µM | > 100 µM | > 100 µM | > 100 µM | > 100 µM | > 100 µM | 
9 | CCOC(=O)Cc1ccc(Nc2nc3ccccc3nc2C(=O)OCC)cc1 | > 100 µM | > 100 µM | > 100 µM | > 100 µM | > 100 µM | > 100 µM |  | > 100 µM | > 100 µM |  | > 100 µM | > 100 µM |  | > 100 µM | > 100 µM | > 100 µM | > 100 µM | > 100 µM | > 100 µM
10 | Nc1ccn([C@H]2CO[C@@H](CO)[C@@H]2O)c(=O)n1 |  | > 100 µM | > 100 µM | > 100 µM | > 100 µM | > 100 µM | > 100 µM | > 100 µM | > 100 µM | > 100 µM | > 100 µM |  | > 100 µM | > 100 µM | > 100 µM | > 100 µM | > 100 µM |  | > 100 µM
11 | COC1=C(Br)[C@H](O)[C@@]2(C=C1Br)CC(C(=O)NCCCOc1c(Br)cc(C(O)CNC(C)=O)cc1Br)=NO2 (stereo not given in full) | > 10 µM | > 10 µM | > 10 µM | > 10 µM | > 10 µM | > 10 µM | > 10 µM | > 10 µM | > 10 µM | > 10 µM | > 10 µM | > 10 µM | > 10 µM | > 10 µM | > 10 µM | > 10 µM | > 10 µM | > 10 µM | 
